Values quoted from earlier work, collected in PMC8513935.

Assays:
[1] = derived by the authors as gas->solvent minus gas->water (a hypothetical dry solvent; the ESI), not a two-phase measurement
[2] = log P octanol/water from commercial databases, averaged (the ESI); settings: Octanol (wet), 25 C
[3] = experimental, compiled by the authors from the literature (the ESI cites the sources)

## Oc1ccccc1
[1]; 1,2-Dichloroethane, 25 C
  log K of transfer, water to solvent: 0.61 log10 K
[1]; Benzene, 25 C
  log K of transfer, water to solvent: 0.37 log10 K
[1]; CCl4, 25 C
  log K of transfer, water to solvent: -0.3 log10 K
[1]; Chlorobenzene, 25 C
  log K of transfer, water to solvent: 0.25 log10 K
[1]; Chloroform, 25 C
  log K of transfer, water to solvent: 0.32 log10 K
[1]; Cyclohexane, 25 C
  log K of transfer, water to solvent: -0.813 log10 K
[1]; Dichloromethane, 25 C
  log K of transfer, water to solvent: 0.64 log10 K
[1]; Hexadecane, 25 C
  log K of transfer, water to solvent: -1.08 log10 K
[1]; Hexane, 25 C
  log K of transfer, water to solvent: -1.18 log10 K
[1]; Octan-1-ol(dry), 25 C
  log K of transfer, water to solvent: 0.83 log10 K
[1]; Perfluoroalkane, 25 C
  log K of transfer, water to solvent: -2.62 log10 K
[1]; Toluene, 25 C
  log K of transfer, water to solvent: 0.23 log10 K
[2]
  log K of transfer, water to solvent: 1.5 log10 K
[3]; 1,2-Dichloroethane, 25 C
  log K of transfer, gas to solvent: 5.46 log10 K
[3]; Benzene, 25 C
  log K of transfer, gas to solvent: 5.22 log10 K
[3]; CCl4, 25 C
  log K of transfer, gas to solvent: 4.55 log10 K
[3]; Chlorobenzene, 25 C
  log K of transfer, gas to solvent: 5.1 log10 K
[3]; Chloroform, 25 C
  log K of transfer, gas to solvent: 5.17 log10 K
[3]; Cyclohexane, 25 C
  log K of transfer, gas to solvent: 4.03 log10 K
[3]; Dichloromethane, 25 C
  log K of transfer, gas to solvent: 5.49 log10 K
[3]; Hexadecane, 25 C
  log K of transfer, gas to solvent: 3.76 log10 K
[3]; Hexane, 25 C
  log K of transfer, gas to solvent: 3.67 log10 K
[3]; Octan-1-ol, 25 C
  log K of transfer, gas to solvent: 5.68 log10 K
[3]; Perfluoroalkane, 25 C
  log K of transfer, gas to solvent: 2.23 log10 K
[3]; Toluene, 25 C
  log K of transfer, gas to solvent: 5.08 log10 K
[3]; Water, 25 C
  log K of transfer, gas to solvent: 4.85 log10 K

## CCCCCCCO
[1]; 1,2-Dichloroethane, 25 C
  log K of transfer, water to solvent: 1.89 log10 K
[1]; Benzene, 25 C
  log K of transfer, water to solvent: 1.93 log10 K
[1]; Butyronitrile, 25 C
  log K of transfer, water to solvent: 2.24 log10 K
[1]; CCl4, 25 C
  log K of transfer, water to solvent: 1.57 log10 K
[1]; Chlorobenzene, 25 C
  log K of transfer, water to solvent: 1.86 log10 K
[1]; Chloroform, 25 C
  log K of transfer, water to solvent: 2.41 log10 K
[1]; Cyclohexane, 25 C
  log K of transfer, water to solvent: 1.09 log10 K
[1]; Heptan-1-ol, 25 C
  log K of transfer, water to solvent: 2.71 log10 K
[1]; Hexadecane, 25 C
  log K of transfer, water to solvent: 1.02 log10 K
[1]; Hexan-1-ol, 25 C
  log K of transfer, water to solvent: 2.83 log10 K
[1]; Hexane, 25 C
  log K of transfer, water to solvent: 1.01 log10 K
[1]; Methanol, 25 C
  log K of transfer, water to solvent: 2.48 log10 K
[1]; Toluene, 25 C
  log K of transfer, water to solvent: 1.86 log10 K
[2]
  log K of transfer, water to solvent: 2.62 log10 K
[3]; 1,2-Dichloroethane, 25 C
  log K of transfer, gas to solvent: 4.98 log10 K
[3]; Benzene, 25 C
  log K of transfer, gas to solvent: 5.02 log10 K
[3]; Butyronitrile, 25 C
  log K of transfer, gas to solvent: 5.33 log10 K
[3]; CCl4, 25 C
  log K of transfer, gas to solvent: 4.66 log10 K
[3]; Chlorobenzene, 25 C
  log K of transfer, gas to solvent: 4.95 log10 K
[3]; Chloroform, 25 C
  log K of transfer, gas to solvent: 5.5 log10 K
[3]; Cyclohexane, 25 C
  log K of transfer, gas to solvent: 4.18 log10 K
[3]; Heptan-1-ol, 25 C
  log K of transfer, gas to solvent: 5.8 log10 K
[3]; Hexadecane, 25 C
  log K of transfer, gas to solvent: 4.11 log10 K
[3]; Hexan-1-ol, 25 C
  log K of transfer, gas to solvent: 5.92 log10 K
[3]; Hexane, 25 C
  log K of transfer, gas to solvent: 4.1 log10 K
[3]; Methanol, 25 C
  log K of transfer, gas to solvent: 5.57 log10 K
[3]; Toluene, 25 C
  log K of transfer, gas to solvent: 4.95 log10 K
[3]; Water, 25 C
  log K of transfer, gas to solvent: 3.09 log10 K

## c1ccc2c(c1)Cc1ccccc1-2
[1]; 2-Methylpropan-1-ol, 25 C
  log K of transfer, water to solvent: 4.3 log10 K
[1]; 2-Methylpropan-2-ol, 25 C
  log K of transfer, water to solvent: 4.03 log10 K
[1]; 3-Methylbutan-1-ol, 25 C
  log K of transfer, water to solvent: 4.11 log10 K
[1]; Acetonitrile, 25 C
  log K of transfer, water to solvent: 4.67 log10 K
[1]; Butan-1-ol, 25 C
  log K of transfer, water to solvent: 4.26 log10 K
[1]; Butan-2-ol, 25 C
  log K of transfer, water to solvent: 4.11 log10 K
[1]; Decan-1-ol, 25 C
  log K of transfer, water to solvent: 4.39 log10 K
[1]; Ethanol, 25 C
  log K of transfer, water to solvent: 4.09 log10 K
[1]; Heptan-1-ol, 25 C
  log K of transfer, water to solvent: 4.39 log10 K
[1]; Hexadecane, 25 C
  log K of transfer, water to solvent: 4.47 log10 K
[1]; Hexan-1-ol, 25 C
  log K of transfer, water to solvent: 4.34 log10 K
[1]; Hexane, 25 C
  log K of transfer, water to solvent: 4.36 log10 K
[1]; Methanol, 25 C
  log K of transfer, water to solvent: 4.03 log10 K
[1]; Octan-1-ol(dry), 25 C
  log K of transfer, water to solvent: 4.38 log10 K
[1]; Pentan-1-ol, 25 C
  log K of transfer, water to solvent: 4.32 log10 K
[1]; Propan-1-ol, 25 C
  log K of transfer, water to solvent: 4.21 log10 K
[1]; Propan-2-ol, 25 C
  log K of transfer, water to solvent: 4.09 log10 K
[2]
  log K of transfer, water to solvent: 4.18 log10 K
[3]; 2-Methylpropan-1-ol, 25 C
  log K of transfer, gas to solvent: 6.75 log10 K
[3]; 2-Methylpropan-2-ol, 25 C
  log K of transfer, gas to solvent: 6.48 log10 K
[3]; 3-Methylbutan-1-ol, 25 C
  log K of transfer, gas to solvent: 6.56 log10 K
[3]; Acetonitrile, 25 C
  log K of transfer, gas to solvent: 7.12 log10 K
[3]; Butan-1-ol, 25 C
  log K of transfer, gas to solvent: 6.71 log10 K
[3]; Butan-2-ol, 25 C
  log K of transfer, gas to solvent: 6.56 log10 K
[3]; Decan-1-ol, 25 C
  log K of transfer, gas to solvent: 6.84 log10 K
[3]; Ethanol, 25 C
  log K of transfer, gas to solvent: 6.54 log10 K
[3]; Heptan-1-ol, 25 C
  log K of transfer, gas to solvent: 6.84 log10 K
[3]; Hexadecane, 25 C
  log K of transfer, gas to solvent: 6.92 log10 K
[3]; Hexan-1-ol, 25 C
  log K of transfer, gas to solvent: 6.79 log10 K
[3]; Hexane, 25 C
  log K of transfer, gas to solvent: 6.81 log10 K
[3]; Methanol, 25 C
  log K of transfer, gas to solvent: 6.48 log10 K
[3]; Octan-1-ol, 25 C
  log K of transfer, gas to solvent: 6.83 log10 K
[3]; Pentan-1-ol, 25 C
  log K of transfer, gas to solvent: 6.77 log10 K
[3]; Propan-1-ol, 25 C
  log K of transfer, gas to solvent: 6.66 log10 K
[3]; Propan-2-ol, 25 C
  log K of transfer, gas to solvent: 6.54 log10 K
[3]; Water, 25 C
  log K of transfer, gas to solvent: 2.45 log10 K

## C1CCOC1
[1]; 1,2-Dichloroethane, 25 C
  log K of transfer, water to solvent: 0.76 log10 K
[1]; Acetone, 25 C
  log K of transfer, water to solvent: 0.46 log10 K
[1]; CCl4, 25 C
  log K of transfer, water to solvent: 0.57 log10 K
[1]; Chlorobenzene, 25 C
  log K of transfer, water to solvent: 0.41 log10 K
[1]; Chloroform, 25 C
  log K of transfer, water to solvent: 1.3 log10 K
[1]; Di-n-butyl ether, 25 C
  log K of transfer, water to solvent: 0.23 log10 K
[1]; Hexadecane, 25 C
  log K of transfer, water to solvent: 0.076 log10 K
[1]; Hexane, 25 C
  log K of transfer, water to solvent: 0.14 log10 K
[1]; Methanol, 25 C
  log K of transfer, water to solvent: 0.69 log10 K
[1]; Octan-1-ol(dry), 25 C
  log K of transfer, water to solvent: 0.3 log10 K
[1]; Propan-1-ol, 25 C
  log K of transfer, water to solvent: 0.34 log10 K
[1]; Propan-2-ol, 25 C
  log K of transfer, water to solvent: 0.33 log10 K
[1]; Tetrahydrofuran, 25 C
  log K of transfer, water to solvent: 0.58 log10 K
[2]
  log K of transfer, water to solvent: 0.46 log10 K
[3]; 1,2-Dichloroethane, 25 C
  log K of transfer, gas to solvent: 3.32 log10 K
[3]; CCl4, 25 C
  log K of transfer, gas to solvent: 3.13 log10 K
[3]; Chlorobenzene, 25 C
  log K of transfer, gas to solvent: 2.97 log10 K
[3]; Chloroform, 25 C
  log K of transfer, gas to solvent: 3.86 log10 K
[3]; Di-n-butyl ether, 25 C
  log K of transfer, gas to solvent: 2.79 log10 K
[3]; Hexadecane, 25 C
  log K of transfer, gas to solvent: 2.63 log10 K
[3]; Hexane, 25 C
  log K of transfer, gas to solvent: 2.7 log10 K
[3]; Methanol, 25 C
  log K of transfer, gas to solvent: 3.25 log10 K
[3]; Octan-1-ol, 25 C
  log K of transfer, gas to solvent: 2.86 log10 K
[3]; Propan-1-ol, 25 C
  log K of transfer, gas to solvent: 2.9 log10 K
[3]; Propan-2-ol, 25 C
  log K of transfer, gas to solvent: 2.89 log10 K
[3]; Propanone, 25 C
  log K of transfer, gas to solvent: 3.02 log10 K
[3]; Tetrahydrofuran, 25 C
  log K of transfer, gas to solvent: 3.14 log10 K
[3]; Water, 25 C
  log K of transfer, gas to solvent: 2.56 log10 K

## CC(C)(C)c1ccccc1
[1]; Hexadecane, 25 C
  log K of transfer, water to solvent: 4.09 log10 K
[1]; Methanol, 25 C
  log K of transfer, water to solvent: 3.73 log10 K
[1]; Propan-2-ol, 25 C
  log K of transfer, water to solvent: 3.78 log10 K
[1]; Tetrahydrofuran, 25 C
  log K of transfer, water to solvent: 4.77 log10 K
[2]
  log K of transfer, water to solvent: 4.11 log10 K
[3]; Hexadecane, 25 C
  log K of transfer, gas to solvent: 4.41 log10 K
[3]; Methanol, 25 C
  log K of transfer, gas to solvent: 4.05 log10 K
[3]; Propan-2-ol, 25 C
  log K of transfer, gas to solvent: 4.1 log10 K
[3]; Tetrahydrofuran, 25 C
  log K of transfer, gas to solvent: 5.09 log10 K
[3]; Water, 25 C
  log K of transfer, gas to solvent: 0.32 log10 K

## Cc1cc(C)cc(O)c1
[1]; CCl4, 25 C
  log K of transfer, water to solvent: 0.82 log10 K
[1]; Chlorobenzene, 25 C
  log K of transfer, water to solvent: 1.26 log10 K
[1]; Hexadecane, 25 C
  log K of transfer, water to solvent: 0.256 log10 K
[1]; Hexane, 25 C
  log K of transfer, water to solvent: 0.362 log10 K
[2]
  log K of transfer, water to solvent: 2.35 log10 K
[3]; CCl4, 25 C
  log K of transfer, gas to solvent: 5.42 log10 K
[3]; Chlorobenzene, 25 C
  log K of transfer, gas to solvent: 5.86 log10 K
[3]; Hexadecane, 25 C
  log K of transfer, gas to solvent: 4.85 log10 K
[3]; Hexane, 25 C
  log K of transfer, gas to solvent: 4.96 log10 K
[3]; Water, 25 C
  log K of transfer, gas to solvent: 4.6 log10 K
